Experimental data reported in US7713953B2, “2-methylene-(22E)-25-(1-methylene-hexyl)-26,27-cyclo-22-dehydro-19-nor-vitamin D analogs” (Wisconsin Alumni Research Foundation, priority 2008, dated 2010).
pEC50, pKi: −log10 of the molar value.

Columns and labels:
vitamin D-deficient rats [1] = experiment: Bone calcium mobilization (serum calcium); assay type: in vivo, rat; details: for bone calcium mobilization activity (serum calcium): rats on low calcium diet (0.02%), 4 consecutive daily ip doses
Procedure: (§1) Male, weanling Sprague-Dawley rats were placed on Diet 11 (0.47% Ca) diet+AEK oil for one week followed by Diet 11 (0.02% Ca)+AEK oil for 3 weeks. The rats were then switched to a diet containing 0.47% Ca for one week followed by two weeks on a diet containing 0.02% Ca. Dose administration began during the last week on 0.02% calcium diet. Four consecutive ip doses were given approximately 24 hours apart. Twenty-four hours after the last dose, blood was collected from the severed neck and the concentration of serum calcium determined as a measure of bone calcium mobilization. The first 10 cm of the intestine was also collected for intestinal calcium transport analysis using the everted gut sac method.

vitamin D-deficient rats [2] = experiment: Intestinal calcium transport (everted gut sac method); assay type: in vivo, rat
Procedure: as §1

HL-60 cells = experiment: HL-60 cell differentiation (nitro blue tetrazolium reduction); assay type: cell-based, human; details: for pEC50: FIG. 2
Procedure: The study drugs were dissolved in ethanol and the concentrations determined using UV spectrophotometry. Serial dilutions were prepared so that a range of drug concentrations could be tested without changing the final concentration of ethanol (≦0.2%) present in the cell cultures.
Human promyelocytic leukemia (HL60) cells were grown in RPMI-1640 medium containing 10% fetal bovine serum. The cells were incubated at 37° C. in the presence of 5% CO2.
HL60 cells were plated at 1.2×10^5 cells/ml. Eighteen hours after plating, cells in duplicate were treated with drug. Four days later, the cells were harvested and a nitro blue tetrazolium reduction assay was performed (Collins et al., 1979; J. Exp. Med. 149:969-974). The percentage of differentiated cells was determined by counting a total of 200 cells and recording the number that contained intracellular black-blue formazan deposits. Verification of differentiation to monocytic cells was determined by measuring phagocytic activity (data not shown).

[3] = target: T1, full-length recombinant rat vitamin D receptor (Rattus norvegicus, UniProt P13053); experiment: Vitamin D receptor competitive binding with [3H]-1,25(OH)2D3; details: full-length recombinant rat VDR; FIG. 1; read-out: Ki, competition with [3H]-1,25(OH)2D3 for binding to vitamin D receptor
T1 construct: Full-length recombinant rat receptor was expressed in E. coli BL21 (DE3) Codon Plus RIL cells; histidine tag (C); made in house; host or cells: E. coli BL21 (DE3) Codon Plus RIL
T1 sequence (P13053 1-423): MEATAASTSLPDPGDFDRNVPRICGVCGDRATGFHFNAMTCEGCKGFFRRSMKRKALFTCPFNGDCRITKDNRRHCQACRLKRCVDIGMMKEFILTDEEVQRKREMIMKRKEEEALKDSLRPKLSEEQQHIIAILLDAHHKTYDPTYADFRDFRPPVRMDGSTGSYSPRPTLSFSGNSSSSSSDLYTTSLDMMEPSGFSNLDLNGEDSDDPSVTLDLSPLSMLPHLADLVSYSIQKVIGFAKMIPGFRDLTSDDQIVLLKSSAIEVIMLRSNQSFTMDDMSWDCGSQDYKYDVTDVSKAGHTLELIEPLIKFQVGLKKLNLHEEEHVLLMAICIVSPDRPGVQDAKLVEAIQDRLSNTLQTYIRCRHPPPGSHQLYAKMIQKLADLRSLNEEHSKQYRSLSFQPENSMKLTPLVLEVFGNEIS
Procedure: Full-length recombinant rat receptor was expressed in E. coli BL21 (DE3) Codon Plus RIL cells and purified to homogeneity using two different column chromatography systems. The first system was a nickel affinity resin that utilizes the C-terminal histidine tag on this protein. The protein that was eluted from this resin was further purified using ion exchange chromatography (S-Sepharose Fast Flow). Aliquots of the purified protein were quick frozen in liquid nitrogen and stored at −80° C. until use. For use in binding assays, the protein was diluted in TEDK50 (50 mM Tris, 1.5 mM EDTA, pH7.4, 5 mM DTT, 150 mM KCl) with 0.1% Chaps detergent. The receptor protein and ligand concentration were optimized such that no more than 20% of the added radiolabeled ligand was bound to the receptor.
Radiolabeled and unlabeled ligands were added to 100 mcl of the diluted protein at a final ethanol concentration of ≦10%, mixed and incubated overnight on ice to reach binding equilibrium. The following day, 100 mcl of hydroxylapatite slurry (50%) was added to each tube and mixed at 10-minute intervals for 30 minutes. The hydroxylapaptite was collected by centrifugation and then washed three times with Tris-EDTA buffer (50 mM Tris, 1.5 mM EDTA, pH 7.4) containing 0.5% Titron X-100. […] Total binding was determined from the tubes containing only radiolabeled ligand.

[4] = system: 24-hydroxylase (24 Ohase) gene promoter in ROS 17/2.8 (bone) cells; experiment: In vitro transcription assay (24-hydroxylase promoter luciferase reporter); assay type: cell-based
Procedure: Transcription activity was measured in ROS 17/2.8 (bone) cells that were stably transfected with a 24-hydroxylase (24 Ohase) gene promoter upstream of a luciferase reporter gene (Arbour et al., 1998). Cells were given a range of doses. Sixteen hours after dosing the cells were harvested and luciferase activities were measured using a luminometer.
RLU=relative luciferase units.

[5] = times greater than the native hormone

Row | SMILES | bone calcium mobilization activity (serum calcium) (vitamin D-deficient rats [1]; FIG. 4A) | intestinal calcium transport at 780 pmol/day (vitamin D-deficient rats [2]) | pEC50 (HL-60 cells) | pKi [3] | bone calcium mobilization at 7020 pmol/day compared with native hormone at 780 pmol/day (vitamin D-deficient rats [1]; 7020 pmol/day for 4 consecutive days, FIG. 4B) | dose giving the same mobilization of bone calcium as 1,25(OH)2D3 at 32 pmol/day (vitamin D-deficient rats [1]; 4 consecutive days, FIG. 4A) | dose at which any substantial effect on bone calcium mobilization was seen (vitamin D-deficient rats [1]; FIG. 4A, first group of animals) | dose at which any substantial effect on bone calcium mobilization was seen (vitamin D-deficient rats [1]; FIG. 4B, second group of animals) | intestinal calcium transport activity at 260 pmol/day (vitamin D-deficient rats [2]; 260 pmol/day for 4 consecutive days, FIG. 5A) | dose at which any significant effect on intestinal calcium transport was seen (vitamin D-deficient rats [2]; FIG. 5A) | intestinal calcium transport activity (vitamin D-deficient rats [2]; FIG. 5A, overall) | intestinal calcium transport activity compared with native hormone (vitamin D-deficient rats [2]; FIG. 5B, second group of animals) | pEC50 (HL-60 cells; Homo sapiens, HL-60) | HL-60 cell differentiation activity relative to 1α,25-dihydroxyvitamin D3 (HL-60 cells; [5]) | pEC50 ([4]; 24-hydroxylase gene, FIG. 3, read-out: EC50, transcriptional activity in bone cells) | transcriptional activity in bone cells relative to 1α,25-dihydroxyvitamin D3 [4, 5]
1 | C=C1/C(=C\C=C2/CCC[C@]3(C)[C@@H]([C@H](C)CCCC(C)(C)O)CC[C@@H]23)C[C@@H](O)C[C@@H]1O [1,25(OH)2D3, 1α,25-dihydroxyvitamin D3, reference compound] | increased serum calcium levels at all dosages | significant increase | 8.52 | – | – | – | – | – | – | – | – | – | – | – | – | –
2 | C=C1[C@H](O)CC(=C/C=C2\CCC[C@]3(C)[C@@H]([C@H](C)/C=C/[C@@H](O)C4(C(=C)CCCCC)CC4)CC[C@@H]23)C[C@H]1O [MM-49, 2-methylene-(22E)-25-(1-methylene-hexyl)-26,27-cyclo-22-dehydro-19-nor-1α,24(R)-dihydroxyvitamin D3] | relatively low, or little, activity in mobilizing calcium from bone | promotes intestinal calcium transport | – | 9.52 | did not result in the same mobilization of bone calcium | 260 pmol/day | 780 pmol/day | 35,100 pmol/day | did not result in any activity | 780 pmol/day | relatively low, or little, intestinal calcium transport activity | significantly less than 1,25(OH)3D3 | 9.10 | ~5 times | 10.10 | 5 times
